Here are results for ten molecules from US5916905A, “2,3-substituted pyridines for the treatment of inflammation” (G. D. Searle & Co., priority 1997, dated 1999).

SMILES strings stand for the structures.

Assay [1] has as its target T1, COX-2 (Mus musculus, UniProt Q05769).
T1 construct: A 2.0 kb fragment containing the coding region; made in house; host or cells: SF9 insect cells (baculovirus, pVL1393)
T1 sequence (Q05769 18-604): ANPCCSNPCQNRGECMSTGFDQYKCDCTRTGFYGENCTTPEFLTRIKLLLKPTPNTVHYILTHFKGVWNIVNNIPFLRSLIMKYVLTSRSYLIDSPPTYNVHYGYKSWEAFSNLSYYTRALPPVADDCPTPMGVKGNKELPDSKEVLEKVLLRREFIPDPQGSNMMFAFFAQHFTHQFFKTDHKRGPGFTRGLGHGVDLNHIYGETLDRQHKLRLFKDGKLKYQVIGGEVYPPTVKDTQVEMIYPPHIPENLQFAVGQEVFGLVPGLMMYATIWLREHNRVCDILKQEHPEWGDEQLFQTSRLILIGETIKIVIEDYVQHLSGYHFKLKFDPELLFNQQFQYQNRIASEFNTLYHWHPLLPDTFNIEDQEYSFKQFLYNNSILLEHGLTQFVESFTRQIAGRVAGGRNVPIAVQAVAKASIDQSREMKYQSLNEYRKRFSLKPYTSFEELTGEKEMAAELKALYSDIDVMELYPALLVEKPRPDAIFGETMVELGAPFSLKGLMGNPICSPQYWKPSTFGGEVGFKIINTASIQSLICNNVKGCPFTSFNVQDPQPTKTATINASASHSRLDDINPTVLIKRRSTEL
In words: COX-2 activity in vitro, recombinant murine enzyme (PGE2 ELISA). It is filed as biochemical. Particulars: murine (m); 10 μM arachidonic acid, 10-20 min pre-incubation; read-out: COX-2 ID50. As for the experimental part: (§1) The COX-2 inhibition activity of the compounds of this invention illustrated in the Examples was determined by the following methods.
(§2) Recombinant COX-1 and COX-2 were prepared as described by Gierse et al, [J. Biochem., 305, 479-84 (1995)]. A 2.0 kb fragment containing the coding region of either human or murine COX-1 or human or murine COX-2 was cloned into a BamH1 site of the baculovirus transfer vector pVL1393 (Invitrogen) to generate the baculovirus transfer vectors for COX-1 and COX-2 in a manner similar to the method of D. R. O'Reilly et al (Baculovirus Expression Vectors: A Laboratory Manual (1992)). Recombinant baculoviruses were isolated by transfecting 4 μg of baculovirus transfer vector DNA into SF9 insect cells (2×10^8) along with 200 ng of linearized baculovirus plasmid DNA by the calcium phosphate method. See M. D. Summers and G. E. Smith, A Manual of Methods for Baculovirus Vectors and Insect Cell Culture Procedures, Texas Agric. Exp. Station Bull. 1555 (1987). Recombinant viruses were purified by three rounds of plaque purification and high titer (10^7 -10^8 pfu/ml) stocks of virus were prepared. For large scale production, SF9 insect cells were infected in 10 liter fermentors (0.5×10^6 /ml) with the recombinant baculovirus stock such that the multiplicity of infection was 0.1. After 72 hours the cells were centrifuged and the cell pellet homogenized in Tris/Sucrose (50 mM: 25%, pH 8.0) containing 1% 3-[(3-cholamidopropyl)dimethylammonio]-1-propanesulfonate (CHAPS). The homogenate was centrifuged at 10,000×G for 30 minutes, and the resultant supernatant was stored at -80° C. before being assayed for COX activity.
(§3) b. Assay for COX-1 and COX-2 activity COX activity was assayed as PGE2 formed/μg protein/time using an ELISA to detect the prostaglandin released. CHAPS-solubilized insect cell membranes containing the appropriate COX enzyme were incubated in a potassium phosphate buffer (50 mM, pH 8.0) containing epinephrine, phenol, and heme with the addition of arachidonic acid (10 μM). Compounds were pre-incubated with the enzyme for 10-20 minutes prior to the addition of arachidonic acid. Any reaction between the arachidonic acid and the enzyme was stopped after ten minutes at 37° C./room temperature by transferring 40 μl of reaction mix into 160 μl ELISA buffer and 25 μM indomethacin. The PGE2 formed was measured by standard ELISA technology (Cayman Chemical).

In assay [2] the target is T2, COX-1 (Mus musculus, UniProt P22437).
T2 construct: A 2.0 kb fragment containing the coding region; made in house; host or cells: SF9 insect cells (baculovirus, pVL1393)
T2 sequence (P22437 27-602): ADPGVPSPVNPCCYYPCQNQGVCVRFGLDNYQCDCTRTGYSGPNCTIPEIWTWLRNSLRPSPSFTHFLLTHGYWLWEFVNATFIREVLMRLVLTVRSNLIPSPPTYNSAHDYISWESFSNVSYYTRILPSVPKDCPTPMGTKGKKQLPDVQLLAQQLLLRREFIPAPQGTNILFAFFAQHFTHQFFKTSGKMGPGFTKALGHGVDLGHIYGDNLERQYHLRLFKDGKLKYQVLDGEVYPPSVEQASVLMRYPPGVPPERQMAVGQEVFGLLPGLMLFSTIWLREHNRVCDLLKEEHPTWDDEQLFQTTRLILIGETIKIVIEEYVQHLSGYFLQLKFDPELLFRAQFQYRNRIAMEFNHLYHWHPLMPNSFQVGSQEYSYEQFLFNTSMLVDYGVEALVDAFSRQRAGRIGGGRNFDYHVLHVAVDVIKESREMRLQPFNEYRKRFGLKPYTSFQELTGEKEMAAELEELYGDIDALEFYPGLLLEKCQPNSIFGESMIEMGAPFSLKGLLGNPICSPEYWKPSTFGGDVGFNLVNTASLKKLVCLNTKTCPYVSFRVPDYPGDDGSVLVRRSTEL
In words: COX-1 activity in vitro, recombinant murine enzyme (PGE2 ELISA). As to conditions: murine (m); 10 μM arachidonic acid, 10-20 min pre-incubation; read-out: COX-1 ID50. It is filed as biochemical. As for the experimental part:
as §1, §2, §3

A further assay concerns carrageenan foot edema. In words: Rat Carrageenan Foot Pad Edema Test. It is filed as in vivo, rat (male Sprague-Dawley). As to conditions: @ 10 mg/kg body weight, oral, 1 h before carrageenan; read 3 h after injection. As for the experimental part: Rat Carrageenan Foot Pad Edema Test
Male Sprague-Dawley rats were selected in each group so that the average body weight was as close as possible. Rats were fasted with free access to water for over sixteen hours prior to the test. […] One hour later a subplantar injection of 0.1 mL of 1% solution of carrageenan/sterile 0.9% saline was administered and the volume of the injected foot was measured with a displacement plethysmometer connected to a pressure transducer with a digital indicator. Three hours after the injection of the carrageenan, the volume of the foot was again measured.

Assay [3] has as its target T3, COX-2 (Homo sapiens, UniProt P35354).
T3 construct: A 2.0 kb fragment containing the coding region; made in house; host or cells: SF9 insect cells (baculovirus, pVL1393)
T3 sequence (P35354 18-604): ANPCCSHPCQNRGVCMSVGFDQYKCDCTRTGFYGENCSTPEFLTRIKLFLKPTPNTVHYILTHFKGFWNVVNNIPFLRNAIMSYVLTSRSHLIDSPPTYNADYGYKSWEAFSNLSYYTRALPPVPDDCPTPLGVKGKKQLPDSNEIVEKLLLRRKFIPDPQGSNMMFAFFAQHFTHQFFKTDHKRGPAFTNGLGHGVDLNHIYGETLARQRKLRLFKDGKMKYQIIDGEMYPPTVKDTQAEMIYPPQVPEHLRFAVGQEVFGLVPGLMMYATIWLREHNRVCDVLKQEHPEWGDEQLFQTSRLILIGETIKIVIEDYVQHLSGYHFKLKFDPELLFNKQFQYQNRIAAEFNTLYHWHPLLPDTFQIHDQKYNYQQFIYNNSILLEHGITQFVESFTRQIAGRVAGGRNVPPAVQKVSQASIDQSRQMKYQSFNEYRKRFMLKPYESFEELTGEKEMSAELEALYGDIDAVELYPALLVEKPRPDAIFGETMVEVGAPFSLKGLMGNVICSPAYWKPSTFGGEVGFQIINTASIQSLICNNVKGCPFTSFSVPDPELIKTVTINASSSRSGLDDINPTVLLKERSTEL
The assay is described as follows: COX-2 activity in vitro, recombinant human enzyme (PGE2 ELISA). Particulars: human (h); 10 μM arachidonic acid, 10-20 min pre-incubation; read-out: COX-2 ID50. It is filed as biochemical. As for the experimental part:
as §1, §2, §3

The target of assay [4] is T4, COX-1 (Homo sapiens, UniProt P23219).
T4 construct: A 2.0 kb fragment containing the coding region; made in house; host or cells: SF9 insect cells (baculovirus, pVL1393)
The assay is described as follows: COX-1 activity in vitro, recombinant human enzyme (PGE2 ELISA). It is filed as biochemical. As to conditions: human (h); 10 μM arachidonic acid, 10-20 min pre-incubation; read-out: COX-1 ID50. The procedure: as §1, §2, §3

T4 sequence (P23219 24-599): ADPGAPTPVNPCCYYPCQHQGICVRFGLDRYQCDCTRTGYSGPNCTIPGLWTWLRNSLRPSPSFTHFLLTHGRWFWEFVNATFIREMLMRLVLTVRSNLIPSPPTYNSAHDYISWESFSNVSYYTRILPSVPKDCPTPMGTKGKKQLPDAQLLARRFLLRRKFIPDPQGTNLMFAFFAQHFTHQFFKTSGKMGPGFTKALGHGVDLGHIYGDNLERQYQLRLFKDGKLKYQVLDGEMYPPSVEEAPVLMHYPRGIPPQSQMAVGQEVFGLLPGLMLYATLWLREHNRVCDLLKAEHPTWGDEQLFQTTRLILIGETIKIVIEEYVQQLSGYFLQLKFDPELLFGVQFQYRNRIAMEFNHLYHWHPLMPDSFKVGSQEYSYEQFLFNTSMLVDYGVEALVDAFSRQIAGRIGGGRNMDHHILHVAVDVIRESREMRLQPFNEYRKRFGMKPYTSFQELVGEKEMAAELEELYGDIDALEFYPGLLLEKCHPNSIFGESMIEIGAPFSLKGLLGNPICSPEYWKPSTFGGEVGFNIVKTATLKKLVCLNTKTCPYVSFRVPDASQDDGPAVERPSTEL

`CS(=O)(=O)c1ccc(-c2cc(C#N)cnc2-c2ccc(F)cc2)cc1` [Example 22, 6-(4-Fluorophenyl)-5-[4-(methylsulfonyl)phenyl]pyridine-3-carbonitrile]: the IC50 was 0.3 µM at COX-2 [1] and over 10 µM on COX-1 [2].

For the molecule `CS(=O)(=O)c1ccc(-c2cc(C#N)c(-c3ccccc3)nc2-c2ccc(F)cc2)cc1` [Example 4, 6-(4-Fluorophenyl)-5-[4-(methylsulfonyl)phenyl]-2-phenyl-pyridine-3-carbonitrile], the “RAT PAW EDEMA % Inhibition” value in the assay on carrageenan foot edema amounted to 18%. Besides, the IC50 on COX-2 [1] is under 0.1 µM; on COX-1 [2], over 10 µM.

With `CS(=O)(=O)c1ccc(-c2cc(C#N)c(Cl)nc2-c2ccc(F)cc2)cc1` [Example 7, 2-Chloro-6-(4-fluorophenyl)-5-[4-(methylsulfonyl)phenyl]-pyridine-3-carbonitrile], the IC50 at COX-2 [1] was 0.1 µM; at COX-1 [2] it was over 100 µM.

Regarding `CS(=O)(=O)c1ccc(-c2cc(C(N)=O)cnc2-c2ccc(F)cc2)cc1` [Example 21, 6-(4-Fluorophenyl)-5-[4-(methylsulfonyl)phenyl]pyridine-3-carboxamide], the values for the IC50 on COX-2 [1] and at COX-1 [2] were 105 µM and over 100 µM, respectively.

On to `CS(=O)(=O)c1ccc(-c2cc(C(N)=O)c(Cl)nc2-c2ccc(F)cc2)cc1` [Example 20, 2-Chloro-6-(4-fluorophenyl)-5-[4-(methylsulfonyl)phenyl]pyridine-3-carboxamide], for which the IC50 on COX-2 [1] was 26.2 µM; on COX-1 [2], over 100 µM.

With `COc1nc(-c2ccc(F)cc2)c(-c2ccc(S(C)(=O)=O)cc2)cc1C#N` [Example 2, 6-(4-Fluorophenyl)-2-methoxy-5-[4-(methylsulfonyl)phenyl]-pyridine-3-carbonitrile], the “RAT PAW EDEMA % Inhibition” value in the assay on carrageenan foot edema came to 16%. In addition, the figures for the IC50 on COX-2 [3] and on COX-1 [4] were 0.2 µM and over 100 µM, respectively.

In the case of `COc1nc(-c2ccc(S(C)(=O)=O)cc2)c(-c2ccc(F)cc2)cc1C#N` [Example 23], the figures for the IC50 at COX-2 [1] and on COX-1 [2] were 0.3 µM and over 100 µM, respectively.

On to `CS(=O)(=O)c1ccc(-c2cc(C#N)c(Br)nc2-c2ccc(F)cc2)cc1` [Example 3, 2-Bromo-6-(4-fluorophenyl)-5-[4-(methylsulfonyl)phenyl]-pyridine-3-carbonitrile], for which the “RAT PAW EDEMA % Inhibition” value in the assay on carrageenan foot edema is given as 16%. Moreover, the IC50 on COX-2 [1] is under 0.1 µM; at COX-1 [2], over 10 µM.

`CS(=O)(=O)c1ccc(-c2ccc(Cl)nc2-c2ccc(F)cc2)cc1` [Example 1, 2-chloro-6-(4-fluorophenyl)-5-[4-(methylsulfonyl)phenyl]pyridine]: the IC50 on COX-2 [3] was 29 µM; at COX-1 [4] it was over 100 µM.

On to `CCCCOc1nc(-c2ccc(F)cc2)c(-c2ccc(S(C)(=O)=O)cc2)cc1COC(C)=O` [Example 39, 2-Butoxy-6-(4-fluorophenyl)-5-[4-(methylsulfonyl)phenyl]pyridine-3-methanol, acetate], for which the IC50 was 0.1 µM at COX-2 [3] and over 100 µM on COX-1 [4].
